The text below walks through data of patent US20230295197A1, “STAT5 and STAT6 Degraders and Uses Thereof” (REGENTS OF THE UNIVERSITY OF MICHICAN, priority 2022, published 2023).

For this test, the target named is T1, STAT6 (Homo sapiens, UniProt P42226).
T1 construct: endogenous in cells; host or cells: MOLM-16, KU-812, SKNO1, MB231, L1236
T1 sequence (P42226 1-847): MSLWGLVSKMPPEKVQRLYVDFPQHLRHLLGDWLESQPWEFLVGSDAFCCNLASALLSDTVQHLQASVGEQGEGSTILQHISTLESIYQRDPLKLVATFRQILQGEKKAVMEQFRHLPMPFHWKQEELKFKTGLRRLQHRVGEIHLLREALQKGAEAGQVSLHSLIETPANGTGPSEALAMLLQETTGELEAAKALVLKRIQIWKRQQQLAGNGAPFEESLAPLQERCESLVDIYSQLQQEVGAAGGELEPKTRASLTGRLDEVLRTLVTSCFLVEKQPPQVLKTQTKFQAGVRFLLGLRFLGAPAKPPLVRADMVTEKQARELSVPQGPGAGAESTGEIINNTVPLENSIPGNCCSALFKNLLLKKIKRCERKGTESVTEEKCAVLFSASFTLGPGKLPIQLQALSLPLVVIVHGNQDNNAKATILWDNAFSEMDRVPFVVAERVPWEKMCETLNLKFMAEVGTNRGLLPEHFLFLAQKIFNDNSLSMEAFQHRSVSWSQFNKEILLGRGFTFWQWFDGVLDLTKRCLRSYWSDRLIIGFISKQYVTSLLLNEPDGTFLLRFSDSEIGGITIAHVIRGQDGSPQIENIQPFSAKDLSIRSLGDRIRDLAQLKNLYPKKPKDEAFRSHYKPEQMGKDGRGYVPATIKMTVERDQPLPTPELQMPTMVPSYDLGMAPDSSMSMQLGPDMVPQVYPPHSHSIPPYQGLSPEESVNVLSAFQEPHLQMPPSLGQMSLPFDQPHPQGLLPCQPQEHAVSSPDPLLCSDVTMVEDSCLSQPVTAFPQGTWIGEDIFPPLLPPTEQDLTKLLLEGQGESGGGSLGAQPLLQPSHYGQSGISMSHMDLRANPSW
Description: Immunoblotting (Western blot) analysis of STAT6 degradation efficiency of degraders in treated cells. The test is classed as cell-based. The method, boiled down: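 Cells (~1 million per point) treated with compounds at indicated concentrations and times, lysed in RIPA with protease/phosphatase inhibitors; 20-40 μg protein run on SDS-PAGE and blotted to PVDF. STAT6 or STAT5 rabbit mAbs with GAPDH loading control, IRDye secondaries; near-infrared fluorescence scan, band intensity quantified.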
Background: Immunoblotting shows a protein as a band on a membrane.

Where [1] appears, read: L1236 cells, read-out: DC50 S6 L1236.
Setting [2] is: MOLM-16 cells, class symbols, read-out: DC50 S6 MOLM-16.
[3] abbreviates: MOLM-16 cells, numeric bound, read-out: DC50 S6 MOLM-16.

Like-named read-outs stand apart in the source and are kept apart here. Where only a bound is given, the exact number is not on record here.

For orientation: DC50 means the midpoint of the concentration-degradation curve. In the case of `Cc1ncsc1-c1ccc([C@H](C)NC(=O)[C@@H]2C[C@@H](O)CN2C(=O)[C@@H](NC(=O)CCCCCNC(=O)CO[C@H]2C[C@@H](C(=O)N3CCO[C@H](c4ccccc4)C3)N(C(=O)[C@@H](NC(=O)c3cc4cc(C(F)(F)P(=O)(O)O)ccc4s3)C(C)(C)C)C2)C(C)(C)C)cc1` [Compound 429, (difluoro(2-(((S)-1-((2S,4S)-4-(2-((6-(((S)-1-((2S,4R)-4-hydroxy-2-(((S)-1-(4-(4-methylthiazol-5-yl)phenyl)ethyl)carbamoyl)pyrrolidin-1-yl)-3,3-dimethyl-1-oxobutan-2-yl)amino)-6-oxohexyl)amino)-2-oxoethoxy)-2-((R)-2-phenylmorpholine-4-carbonyl)pyrrolidin-1-yl)-3,3-dimethyl-1-oxobutan-2-yl)carbamoyl)benzo[b]thiophen-5-yl)methyl)phosphonic acid], the 50% degradation concentration (DC50) reads like this: under setting [1], over 10 µM; under setting [2], over 10 µM.

For the compound `CC(C)(C)[C@H](NC(=O)c1cc2cc(C(F)(F)P(=O)(O)O)ccc2s1)C(=O)N1C[C@@H](OCC(=O)NCCCC#Cc2ccc3c(c2)C(=O)N(C2CCC(=O)NC2=O)C3=O)C[C@H]1C(=O)N1CCC[C@H](c2ccccc2)C1` (stereo partly drawn) [Compound 498, ((2-(((2S)-1-((2S,4S)-4-(2-((5-(2-(2,6-dioxopiperidin-3-yl)-1,3-dioxoisoindolin-5-yl)pent-4-yn-1-yl)amino)-2-oxoethoxy)-2-((R)-3-phenylpiperidine-1-carbonyl)pyrrolidin-1-yl)-3,3-dimethyl-1-oxobutan-2-yl)carbamoyl)benzo[b]thiophen-5-yl)difluoromethyl)phosphonic acid], the half-maximal degradation concentration (DC50) under setting [2] is over 10 µM.

On to `CC(C)(C)[C@H](NC(=O)c1cc2cc(C(F)(F)P(=O)(O)O)ccc2s1)C(=O)N1CCN(C(=O)CCCC#Cc2ccc3c(c2)CN(C2CCC(=O)NC2=O)C3=O)C[C@H]1C(=O)N1CCO[C@H](c2ccccc2)C1` (stereo partly drawn) [Compound 597, ((2-(((2S)-1-((2S)-4-(6-(2-(2,6-dioxopiperidin-3-yl)-1-oxoisoindolin-5-yl)hex-5-ynoyl)-2-((R)-2-phenylmorpholine-4-carbonyl)piperazin-1-yl)-3,3-dimethyl-1-oxobutan-2-yl)carbamoyl)benzo[b]thiophen-5-yl)difluoromethyl)phosphonic acid], for which the DC50 under setting [3] was over 0.3 µM.

Regarding `Cc1ncsc1-c1ccc([C@H](C)NC(=O)[C@@H]2C[C@@H](O)CN2C(=O)[C@@H](NC(=O)CCCCCCNC(=O)COc2ccc3c(c2)CN(C(=O)[C@@H](NC(=O)c2cc4cc(C(F)(F)P(=O)(O)O)ccc4s2)C(C)(C)C)[C@H](C(=O)N2CCC[C@H](c4ccccc4)C2)C3)C(C)(C)C)cc1` [Compound 475, (difluoro(2-(((S)-1-((S)-7-(2-((7-(((S)-1-((2S,4R)-4-hydroxy-2-(((S)-1-(4-(4-methylthiazol-5-yl)phenyl)ethyl)carbamoyl)pyrrolidin-1-yl)-3,3-dimethyl-1-oxobutan-2-yl)amino)-7-oxoheptyl)amino)-2-oxoethoxy)-3-((R)-3-phenylpiperidine-1-carbonyl)-3,4-dihydroisoquinolin-2(1H)-yl)-3,3-dimethyl-1-oxobutan-2-yl)carbamoyl)benzo[b]thiophen-5-yl)methyl)phosphonic acid], the half-maximal degradation concentration (DC50) under setting [2] was over 10 µM.

`CC(C)(C)[C@H](NC(=O)c1cc2cc(C(F)(F)P(=O)(O)O)ccc2s1)C(=O)N1Cc2cc(OCC(=O)NCCCCCCCCCC#Cc3ccc4c(c3)C(=O)N(C3CCC(=O)NC3=O)C4=O)ccc2C[C@H]1C(=O)N1CCO[C@H](c2ccccc2)C1` (stereo partly drawn) [Compound 548, ((2-(((2S)-1-((3S)-7-(2-((11-(2-(2,6-dioxopiperidin-3-yl)-1,3-dioxoisoindolin-5-yl)undec-10-yn-1-yl)amino)-2-oxoethoxy)-3-((R)-2-phenylmorpholine-4-carbonyl)-3,4-dihydroisoquinolin-2(1H)-yl)-3,3-dimethyl-1-oxobutan-2-yl)carbamoyl)benzo[b]thiophen-5-yl)difluoromethyl)phosphonic acid]: under setting [2], the DC50 is over 10 µM.

With `CC(C)(C)[C@H](NC(=O)c1cc2cc(C(F)(F)P(=O)(O)O)ccc2s1)C(=O)N1C[C@@H](OCCCCCC(=O)N2Cc3cc4c(cc3C2)C(=O)N(C2CCC(=O)NC2=O)C4)C[C@H]1C(=O)N1CCO[C@H](c2ccccc2)C1` (stereo partly drawn) [Compound 590, ((2-(((2S)-1-((2S,4S)-4-((6-(6-(2,6-dioxopiperidin-3-yl)-5-oxo-3,5,6,7-tetrahydropyrrolo[3,4-f]isoindol-2(1H)-yl)-6-oxohexyl)oxy)-2-((R)-2-phenylmorpholine-4-carbonyl)pyrrolidin-1-yl)-3,3-dimethyl-1-oxobutan-2-yl)carbamoyl)benzo[b]thiophen-5-yl)difluoromethyl)phosphonic acid], under setting [2], the DC50 was in the range of 1 to 10 µM.

Regarding `Cc1ncsc1-c1ccc([C@H](C)NC(=O)[C@@H]2C[C@@H](O)CN2C(=O)[C@@H](NC(=O)CCNC(=O)CO[C@H]2C[C@@H](C(=O)N3CCO[C@H](c4ccccc4)C3)N(C(=O)[C@@H](NC(=O)c3cc4cc(C(F)(F)P(=O)(O)O)ccc4s3)C(C)(C)C)C2)C(C)(C)C)cc1` [Compound 426, (difluoro(2-(((S)-1-((2S,4S)-4-(2-((3-(((S)-1-((2S,4R)-4-hydroxy-2-(((S)-1-(4-(4-methylthiazol-5-yl)phenyl)ethyl)carbamoyl)pyrrolidin-1-yl)-3,3-dimethyl-1-oxobutan-2-yl)amino)-3-oxopropyl)amino)-2-oxoethoxy)-2-((R)-2-phenylmorpholine-4-carbonyl)pyrrolidin-1-yl)-3,3-dimethyl-1-oxobutan-2-yl)carbamoyl)benzo[b]thiophen-5-yl)methyl)phosphonic acid], the DC50 was over 10 µM under setting [1] and over 10 µM under setting [2].

Regarding `CC(C)(C)[C@H](NC(=O)c1cc2cc(C(F)(F)P(=O)(O)O)ccc2s1)C(=O)N1C[C@H](OCCCCCC#Cc2ccc3c(c2)CN(C2CCC(=O)NC2=O)C3=O)C[C@H]1C(=O)N1CCC[C@H](c2ccccc2)C1` (stereo partly drawn) [Compound 603, ((2-(((2S)-1-((2S,4R)-4-((7-(2-(2,6-dioxopiperidin-3-yl)-1-oxoisoindolin-5-yl)hept-6-yn-1-yl)oxy)-2-((R)-3-phenylpiperidine-1-carbonyl)pyrrolidin-1-yl)-3,3-dimethyl-1-oxobutan-2-yl)carbamoyl)benzo[b]thiophen-5-yl)difluoromethyl)phosphonic acid], the DC50 under setting [3] is over 0.3 µM.

With `Cc1ncsc1-c1ccc(CNC(=O)[C@@H]2C[C@@H](O)CN2C(=O)[C@@H](NC(=O)CCCCCNC(=O)CO[C@@H]2C[C@@H](C(=O)N(C)c3ccc(Br)cc3)N(C(=O)[C@@H](NC(=O)c3cc4cc(C(F)(F)P(=O)(O)O)ccc4s3)C(C)(C)C)C2)C(C)(C)C)cc1` [Compound 417, ((2-(((S)-1-((2S,4R)-2-((4-bromophenyl)(methyl)carbamoyl)-4-(2-((6-(((S)-1-((2S,4R)-4-hydroxy-2-((4-(4-methylthiazol-5-yl)benzyl)carbamoyl)pyrrolidin-1-yl)-3,3-dimethyl-1-oxobutan-2-yl)amino)-6-oxohexyl)amino)-2-oxoethoxy)pyrrolidin-1-yl)-3,3-dimethyl-1-oxobutan-2-yl)carbamoyl)benzo[b]thiophen-5-yl)difluoromethyl)phosphonic acid], the DC50 by setting is: under setting [1], over 10 µM; (MB231 cells, read-out: DC50 S6 MB231) over 10 µM.
